Patent publication US20110112010A1, “OCTANOIC ACID FORMULATIONS AND METHODS OF TREATMENT USING THE SAME” (The Government of the United States of America, as …, priority 2008, published 2011)

What was measured:
[1] = Pharmacokinetics of oral 1-octanol and its metabolite octanoic acid in plasma of adults with Essential Tremor; format: in vivo, human
Protocol: Subjects: All subjects underwent a routine medical screening and neurological examination. A structured ethanol challenge was carried out to confirm tremors were ethanol-responsive. Subjects were videotaped at 0, 15, 30, 45, 60, and 75-minutes after receiving two servings (50-ml each) of 40% ethanol along with digitized spirography measures. Ethanol-responsive subjects then completed either a dose titration (1-64 mg/kg) inpatient study or a fixed dose (64 mg/kg) inpatient study to characterize the pharmacokinetics of 1-octanol and its predicted primary metabolite octanoic acid (OA). Plasma Sampling: During the inpatient study, subjects received oral 1-octanol followed by collection of plasma samples at the following intervals: 5, 20, 45, 70, 100, 130, 160, 210, 270 and 360-minutes post-dose. Samples were processed then batch analyzed using high-performance liquid chromatography and mass spectrometry methods to measure concentrations of 1-octanol and OA.

[2] = system: Essential Tremor; experiment: Tremor assessment by digitized Archimedes spirals after oral 1-octanol; format: in vivo, human
Protocol: Subjects: All subjects underwent a routine medical screening and neurological examination. A structured ethanol challenge was carried out to confirm tremors were ethanol-responsive. Subjects were videotaped at 0, 15, 30, 45, 60, and 75-minutes after receiving two servings (50-ml each) of 40% ethanol along with digitized spirography measures. Ethanol-responsive subjects then completed either a dose titration (1-64 mg/kg) inpatient study or a fixed dose (64 mg/kg) inpatient study to characterize the pharmacokinetics of 1-octanol and its predicted primary metabolite octanoic acid (OA). Tremor Assessment: To assess efficacy, subjects drew Archimedes spirals at fixed intervals on a digitizing tablet with an overlaid spiral guide. We used in-house analysis software to process the data before conducting a fast Fourier transform of tremor velocity to obtain our frequency and power measures.

[3] = system: Essential Tremor; conditions: humans with Essential Tremor; Bushara 2004, Shill 2004; cited from earlier work
[4] = system: hereditary essential tremor; conditions: patients with hereditary essential tremor; Brain 1994, 117: 805-824; cited from earlier work
[5] = system: harmaline-induced tremor; experiment: Harmaline mouse model of essential tremor (motion power percentage); format: in vivo; conditions: male ICR mice, harmaline 20 mg/kg s.c., octanoic acid i.p. in PEG-300
Excerpt: The harmaline model of essential tremor: Harmaline is a beta-carboline alkaloid that produces action tremor on systemic administration to mammals (see Llinas et al., Exp Brain Res 18:69 (1973)). […] Harmaline thus acts within the olivo-cerebellar system to produce tremor and can be used as a model to assess potential ET therapies (see Martin et al., Mov. Disord. 20:298 (2005)).
Animals: Male ICR mice (20-24 g) from Harlan (Indianapolis, Ind.) were housed in groups in standard cages with ad libitum access to commercial rodent diet and water.
Tremor measurement: Motion activity was measured with a Convuls-1 Replacement Sensing Platform model 1335-1A (Columbus Instruments, Columbus, Ohio), a metal platform with a load sensor beneath it, that is connected to a Grass model P511 AC amplifier (Grass Instruments, West Warwick, R.I.) with 1 and 70 Hz filter settings. Digitally recorded motion power was analyzed using Cambridge converter and software. Data was sampled at 128 Hz. The total motion power for each 20-minute epoch was calculated between 0 and 34 Hz (full motion spectrum) and between 10 and 16 Hz (the harmaline tremor frequency bandwidth); and the motion power percentage (10-16 Hz power)/(0-34 Hz power)×100 then calculated. This percentage is expressed as motion power percentage (MPP). […]

CCCCCCCCO [1-octanol]
1-octanol concentration as a function of oral dose ([1]; oral 1-octanol dose titration 1-64 mg/kg): remained at very low basal levels until the 64 mg/kg dose
peak tremor reduction from baseline ([2]; at 120 minutes post-dose): 42%
persistence of tremor-reducing effect ([2]; last timepoint 360 minutes): > 360 min
safety and tremor suppression in early human studies [3]: safe and effective at tremor suppression

CCO [ethanol]
proportion of patients in whom treatment was effective [4]: 50%

CCCCCCCC(=O)O [octanoic acid]
suppression of harmaline-induced tremor [5]: suppressed harmaline-induced tremor in a dose dependent fashion
OA plasma half-life ([1]; human, in vivo, po): approximately 74 minutes
earliest time at which OA plasma concentrations were detectable post-dose ([1]; human, in vivo, po): 5 min
persistence of OA plasma levels following administration ([1]; human, in vivo, po): up to 6 hours
